As a reminder, the viability is a read-out of living cells in per cent, often relative to untreated cells.

The record followed here is patent US20170209364A1, “Method For Treating The Appearance Of Thinning Hair” (priority 2016, published 2017).

In one data set the test system is 5-α reductase enzyme. Put plainly: 5-α reductase inhibition: [14C]-testosterone metabolism to DHT in cultured cells (TLC/autoradiography). In kind it is cell-based. The settings on record: Finasteride 1 × 10^−5 M (reference).

Structures are written as SMILES.

Procedure for 5-α reductase enzyme: Cells were seeded in a 24-well plate and cultured for 24 hours in culture medium. […] Cells were then treated with assay medium containing [^14C]-testosterone and containing the test compound, the association or the reference and the cells were incubated for 24 hours. The culture supernatants were then collected for testosterone metabolism analysis and a standard MTT reduction assay was performed on the cell layers (cell viability assessment).
All experimental conditions were performed in n=3.
The steroid molecules from supernatants were extracted with a chloroform/methanol mix. The organic phase was collected and the different molecular species (testosterone metabolites) were separated by thin layer chromatography (TLC) and using a solvent system containing dichloromethane, ethyl acetate and methanol.
An autoradiography was performed on the chromatography and the transformed testosterone was estimated by densitometric analysis of the different spots corresponding to testosterone metabolites (Packard Cyclone Phosphorlmager and Fujifilm Multigauge software).
Procedure for in vitro: Cells were seeded in a 24-well plate and cultured for 24 hours in culture medium.
At the end of incubation, the cells were incubated with MTT (tetrazolium salt) reduced in blue formazan crystals by succinate dehydrogenase (mitochondrial enzyme). This transformation is proportional to the enzyme activity. After cell dissociation and formazan crystal solubilization using DMSO, the optical density (OD) of the extracts at 540 nm, proportional to the number of living cells and their metabolic activity, was recorded with a microplate reader (VERSAmax, Molecular Devices). The equation used for measuring cell viability is as follows: viability (%)=(OD sample/OD control)×100.
Dermal papilla cell viability is measured with a standard MTT assay (via ASTM E2526-08(2013)).

Turning to `CC(C)(C)NC(=O)[C@H]1CC[C@H]2[C@@H]3CC[C@H]4NC(=O)C=C[C@]4(C)[C@H]3CC[C@]12C` [Finasteride, finasteride], in the data set on 5-α reductase enzyme, the “DHT/Testosterone ratio as % of Control” value is reported as 28%. Besides, the viability at 48 h in “in vitro” worked out at 101%.
